Laboratory results as given in ChEMBL document CHEMBL1201862, “PubChem BioAssay data set” (2004).
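Briefly, cells in 96-well plates were exposed to five compound concentrations for 48 h, and endpoints were estimated by linear interpolation. Here, GI50 denotes the concentration required for 50% inhibition of growth.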 The source made the active and inactive calls. Rule as the data show it: active = GI50 up to about 1.1 µM and inactive = higher.

How the values were obtained:
Assay in all cases: NCI tumour cell line growth inhibition, 48 h
LXFL 529 = tested on: LXFL 529
RPMI-8226 = tested on: RPMI-8226
ACHN = tested on: ACHN
DMS-273 = tested on: DMS-273
SK-MEL-2 = tested on: SK-MEL-2
M19-MEL = tested on: M19-MEL
HOP-62 = tested on: HOP-62
SNB-78 = tested on: SNB-78
SK-MEL-5 = tested on: SK-MEL-5
SNB-75 = tested on: SNB-75
NCI-H460 = tested on: NCI-H460
IGROV-1 = tested on: IGROV-1
HT-29 = tested on: HT-29
MOLT-4 = tested on: MOLT-4
U-251 = tested on: U-251
KM-20L2 = tested on: KM-20L2
UACC-62 = tested on: UACC-62
K562 = tested on: K562
UACC-257 = tested on: UACC-257
SK-OV-3 = tested on: SK-OV-3
NCI-H23 = tested on: NCI-H23
HL-60 = tested on: HL-60
SK-MEL-28 = tested on: SK-MEL-28
SW-620 = tested on: SW-620
EKVX = tested on: EKVX
Malme-3M = tested on: Malme-3M
DLD-1 = tested on: DLD-1
TK-10 = tested on: TK-10
HOP-92 = tested on: HOP-92
RXF 393 = tested on: RXF 393
KM12 = tested on: KM12
CCRF-CEM = tested on: CCRF-CEM
OVCAR-5 = tested on: OVCAR-5
A498 = tested on: A498
786-0 = tested on: 786-0
XF498 = tested on: XF498
COLO 205 = tested on: COLO 205
LOX IMVI = tested on: LOX IMVI
UO-31 = tested on: UO-31
HCC 2998 = tested on: HCC 2998
OVCAR-3 = tested on: OVCAR-3
SNB-19 = tested on: SNB-19
M14 = tested on: M14
DMS-114 = tested on: DMS-114
NCI-H522 = tested on: NCI-H522
OVCAR-8 = tested on: OVCAR-8
A549 = tested on: A549
HCT-116 = tested on: HCT-116
SF-539 = tested on: SF-539
CAKI-1 = tested on: CAKI-1
SF-268 = tested on: SF-268
HCT-15 = tested on: HCT-15
SN12C = tested on: SN12C
SF-295 = tested on: SF-295
OVCAR-4 = tested on: OVCAR-4
HOP-18 = tested on: HOP-18
SR = tested on: SR

SMILES: Cc1ccc(S(=O)(=O)NC(=O)NC23CC4CC(CC(F)(C4)C2)C3)cc1
- GI50 (LXFL 529): > 100 µM (inactive)
- GI50 (RPMI-8226): > 100 µM (inactive)
- GI50 (ACHN): > 100 µM (inactive)
- GI50 (DMS-273): > 100 µM (inactive)
- GI50 (SK-MEL-2): > 100 µM (inactive)
- GI50 (M19-MEL): > 100 µM (inactive)
- GI50 (HOP-62): > 100 µM (inactive)
- GI50 (SNB-78): > 100 µM (inactive)
- GI50 (SK-MEL-5): > 100 µM (inactive)
- GI50 (SNB-75): 73.6 µM (inactive)
- GI50 (NCI-H460): > 100 µM (inactive)
- GI50 (IGROV-1): > 100 µM (inactive)
- GI50 (HT-29): > 100 µM (inactive)
- GI50 (MOLT-4): > 100 µM (inactive)
- GI50 (U-251): > 100 µM (inactive)
- GI50 (KM-20L2): > 100 µM (inactive)
- GI50 (UACC-62): > 100 µM (inactive)
- GI50 (K562): > 100 µM (inactive)
- GI50 (UACC-257): > 100 µM (inactive)
- GI50 (SK-OV-3): > 100 µM (inactive)
- GI50 (NCI-H23): > 100 µM (inactive)
- GI50 (HL-60): > 100 µM (inactive)
- GI50 (SK-MEL-28): > 100 µM (inactive)
- GI50 (SW-620): > 100 µM (inactive)
- GI50 (EKVX): > 100 µM (inactive)
- GI50 (Malme-3M): > 100 µM (inactive)
- GI50 (DLD-1): > 100 µM (inactive)
- GI50 (TK-10): > 100 µM (inactive)
- GI50 (HOP-92): > 100 µM (inactive)
- GI50 (RXF 393): > 100 µM (inactive)
- GI50 (KM12): > 100 µM (inactive)
- GI50 (CCRF-CEM): > 100 µM (inactive)
- GI50 (OVCAR-5): > 100 µM (inactive)
- GI50 (A498): > 100 µM (inactive)
- GI50 (786-0): > 100 µM (inactive)
- GI50 (XF498): > 100 µM (inactive)
- GI50 (COLO 205): > 100 µM (inactive)
- GI50 (LOX IMVI): > 100 µM (inactive)
- GI50 (UO-31): > 100 µM (inactive)
- GI50 (HCC 2998): > 100 µM (inactive)
- GI50 (OVCAR-3): > 100 µM (inactive)
- GI50 (SNB-19): > 100 µM (inactive)
- GI50 (M14): > 100 µM (inactive)
- GI50 (DMS-114): > 100 µM (inactive)
- GI50 (NCI-H522): > 100 µM (inactive)
- GI50 (OVCAR-8): > 100 µM (inactive)
- GI50 (A549): > 100 µM (inactive)
- GI50 (HCT-116): > 100 µM (inactive)
- GI50 (SF-539): > 100 µM (inactive)

SMILES: CCCCCCCCCCSC(=O)NC
- GI50 (CAKI-1): 25.9 µM (inactive)
- GI50 (LXFL 529): 49.4 µM (inactive)
- GI50 (RPMI-8226): 21.9 µM (inactive)
- GI50 (ACHN): 40.4 µM (inactive)
- GI50 (DMS-273): 29.2 µM (inactive)
- GI50 (SK-MEL-2): 22.5 µM (inactive)
- GI50 (M19-MEL): 38.1 µM (inactive)
- GI50 (SK-MEL-5): 20.5 µM (inactive)
- GI50 (SNB-75): 48.8 µM (inactive)
- GI50 (NCI-H460): 33.3 µM (inactive)
- GI50 (IGROV-1): 79.8 µM (inactive)
- GI50 (SF-268): 31.8 µM (inactive)
- GI50 (HT-29): 29.7 µM (inactive)
- GI50 (MOLT-4): 18.5 µM (inactive)
- GI50 (U-251): 25.8 µM (inactive)
- GI50 (KM-20L2): > 10 µM (inactive)
- GI50 (UACC-62): 35.5 µM (inactive)
- GI50 (K562): 25.8 µM (inactive)
- GI50 (UACC-257): 27.9 µM (inactive)
- GI50 (SK-OV-3): > 100 µM (inactive)
- GI50 (NCI-H23): 30.5 µM (inactive)
- GI50 (HL-60): 19 µM (inactive)
- GI50 (SK-MEL-28): 26.3 µM (inactive)
- GI50 (HCT-15): 22.6 µM
- GI50 (SW-620): 39.6 µM (inactive)
- GI50 (EKVX): 27.2 µM (inactive)
- GI50 (Malme-3M): 36.3 µM (inactive)
- GI50 (DLD-1): 36.9 µM (inactive)
- GI50 (TK-10): 37.9 µM (inactive)
- GI50 (SN12C): 25.7 µM (inactive)
- GI50 (HOP-92): 18.6 µM (inactive)
- GI50 (RXF 393): 19.9 µM (inactive)
- GI50 (KM12): 35.2 µM (inactive)
- GI50 (CCRF-CEM): 18.9 µM (inactive)
- GI50 (SF-295): 50.1 µM (inactive)
- GI50 (OVCAR-5): 80.9 µM (inactive)
- GI50 (A498): 37.5 µM (inactive)
- GI50 (OVCAR-4): 36.7 µM (inactive)
- GI50 (786-0): 35.2 µM (inactive)
- GI50 (XF498): 21.3 µM (inactive)
- GI50 (COLO 205): 34.9 µM (inactive)
- GI50 (LOX IMVI): 32.9 µM (inactive)
- GI50 (UO-31): 23.4 µM (inactive)
- GI50 (HCC 2998): 47.2 µM (inactive)
- GI50 (OVCAR-3): 54.2 µM (inactive)
- GI50 (SNB-19): 28.8 µM (inactive)
- GI50 (M14): 22.4 µM (inactive)
- GI50 (HOP-18): 63 µM (inactive)
- GI50 (NCI-H522): 21.3 µM (inactive)
- GI50 (OVCAR-8): 28 µM (inactive)
- GI50 (A549): 37.8 µM (inactive)
- GI50 (SF-539): 35.3 µM (inactive)

SMILES: c1ccc(SCCCC(Sc2ccccc2)Sc2ccccc2)cc1
- GI50 (CAKI-1): > 100 µM (inactive)
- GI50 (LXFL 529): > 100 µM (inactive)
- GI50 (RPMI-8226): > 100 µM (inactive)
- GI50 (ACHN): > 100 µM (inactive)
- GI50 (DMS-273): > 100 µM (inactive)
- GI50 (SK-MEL-2): > 100 µM (inactive)
- GI50 (M19-MEL): > 100 µM (inactive)
- GI50 (HOP-62): > 100 µM (inactive)
- GI50 (SNB-78): > 100 µM (inactive)
- GI50 (SK-MEL-5): > 100 µM (inactive)
- GI50 (SNB-75): > 100 µM (inactive)
- GI50 (NCI-H460): > 100 µM (inactive)
- GI50 (IGROV-1): > 100 µM (inactive)
- GI50 (SF-268): > 100 µM (inactive)
- GI50 (MOLT-4): > 100 µM (inactive)
- GI50 (U-251): > 100 µM (inactive)
- GI50 (KM-20L2): > 100 µM (inactive)
- GI50 (UACC-62): > 100 µM (inactive)
- GI50 (K562): > 100 µM (inactive)
- GI50 (UACC-257): > 100 µM (inactive)
- GI50 (SK-OV-3): > 100 µM (inactive)
- GI50 (SR): > 100 µM (inactive)
- GI50 (NCI-H23): > 100 µM (inactive)
- GI50 (HL-60): > 100 µM (inactive)
- GI50 (SK-MEL-28): > 100 µM (inactive)
- GI50 (HCT-15): > 100 µM
- GI50 (SW-620): > 100 µM (inactive)
- GI50 (EKVX): > 100 µM (inactive)
- GI50 (DLD-1): > 100 µM (inactive)
- GI50 (TK-10): > 100 µM (inactive)
- GI50 (SN12C): > 100 µM (inactive)
- GI50 (HOP-92): 49.9 µM (inactive)
- GI50 (RXF 393): > 100 µM (inactive)
- GI50 (KM12): > 100 µM (inactive)
- GI50 (CCRF-CEM): > 100 µM (inactive)
- GI50 (SF-295): > 100 µM (inactive)
- GI50 (A498): > 100 µM (inactive)
- GI50 (OVCAR-4): > 100 µM (inactive)
- GI50 (786-0): > 100 µM (inactive)
- GI50 (XF498): > 100 µM (inactive)
- GI50 (COLO 205): > 100 µM (inactive)
- GI50 (LOX IMVI): > 100 µM (inactive)
- GI50 (UO-31): > 100 µM (inactive)
- GI50 (HCC 2998): > 100 µM (inactive)
- GI50 (OVCAR-3): > 100 µM (inactive)
- GI50 (SNB-19): > 100 µM (inactive)
- GI50 (M14): > 100 µM (inactive)
- GI50 (DMS-114): > 100 µM (inactive)
- GI50 (OVCAR-8): > 100 µM (inactive)
- GI50 (A549): > 100 µM (inactive)
- GI50 (HCT-116): > 100 µM (inactive)
- GI50 (SF-539): > 100 µM (inactive)
